Laboratory results published in US10597388B2, “Pyridazinone herbicides” (FMC CORPORATION, priority 2014, dated 2020).

Assays:
Type in all cases: in vivo
[1] = test system: wheat (Triticum aestivum); assay: Test A greenhouse herbicide test, pre- and postemergence; settings: Postemergence
In short: (§1)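 Seeds sown in loam–sand blend got a preemergence directed soil spray of compound in non-phytotoxic solvent with surfactant. Postemergence treatment was given at 2–10 cm, one- to two-leaf stage. After ~10 d in greenhouse, injury was rated visually vs untreated controls, 0 (no effect) to 100 (complete control).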

[2] = test system: ryegrass, Italian (Italian ryegrass, Lolium multiflorum); assay: as above
In short: as §1

[3] = test system: corn (Zea mays); assay: as above; settings: Postemergence
In short: as §1

[4] = test system: ragweed (common ragweed, Ambrosia elatior); assay: as above
In short: as §1

[5] = test system: kochia (Kochia scoparia); assay: as above
In short: as §1

[6] = test system: foxtail, giant (giant foxtail, Setaria faberii); assay: as above
In short: as §1

[7] = test system: galium (catchweed bedstraw, Galium aparine); assay: Test C greenhouse herbicide test, pre- and postemergence
In short: (§2)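 Two application timings: at sowing into a soil/sand blend, and on 2–18 cm seedlings in peat-vermiculite potting mix. A non-phytotoxic, surfactant-containing solvent carried the compounds. Plants were compared with controls and rated visually on 0–100 after 13–15 d.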

[8] = test system: ryegrass, Italian (Italian ryegrass, Lolium multiflorum); assay: as above
In short: as §2

[9] = test system: soybean (Glycine max); assay: as above
In short: as §2

[10] = test system: ragweed (common ragweed, Ambrosia elatior); assay: as above
In short: as §2

[11] = test system: galium (catchweed bedstraw, Galium aparine); assay: Test A greenhouse herbicide test, postemergence
In short: (§3)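 Greenhouse postemergence test: formulated chemicals sprayed on one- to two-leaf plants (2 to 10 cm), grown in loam soil blended with sand. Injury assessed visually about 10 d later against untreated controls, scored 0 (no effect) to 100 (complete control).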

[12] = test system: blackgrass (Alopecurus myosuroides); assay: Test A greenhouse herbicide test, postemergence; settings: for Plant response rating, Blackgrass: 125 g ai/ha, 0 to 100 scale where 0 is no effect and 100 is complete control; for Blackgrass plant response rating: 500 g ai/ha, 0 to 100 scale, 0 is no effect, 100 is complete control
In short: as §3

[13] = 125 g ai/ha, 0 to 100 scale where 0 is no effect and 100 is complete control
[14] = 500 g ai/ha, visual rating after approx. 10 d, 0 to 100 scale (0 no effect, 100 complete control)
[15] = Postemergence, 125 g ai/ha, 0 to 100 scale where 0 is no effect and 100 is complete control
[16] = Postemergence, 500 g ai/ha, visual rating after approx. 10 d, 0 to 100 scale (0 no effect, 100 complete control)
[17] = Preemergence, 125 g ai/ha, 0 to 100 scale where 0 is no effect and 100 is complete control
[18] = Preemergence, 500 g ai/ha, 0 to 100 scale where 0 is no effect and 100 is complete control
[19] = Postemergence, 125 g ai/ha, scale 0 to 100, 0 is no effect, 100 is complete control
[20] = Postemergence, 250 g ai/ha, scale 0 to 100, 0 no effect, 100 complete control, 13 to 15 d
[21] = postemergence, 62 g ai/ha, scale 0 to 100, 0 no effect, 100 complete control
[22] = Postemergence, 31 g ai/ha, scale 0 to 100 (0 no effect, 100 complete control)
[23] = Preemergence, 31 g ai/ha, scale 0 to 100, 0 is no effect, 100 is complete control
[24] = Preemergence, 62 g ai/ha, scale 0 to 100, 0 is no effect, 100 is complete control
[25] = Preemergence, 125 g ai/ha, scale 0 to 100, 0 is no effect, 100 is complete control
[26] = Preemergence, 250 g ai/ha, scale 0 to 100 (0 no effect, 100 complete control)

CC(=O)Oc1c(C#N)nn(C)c(=O)c1-c1c(C)ccc2ccccc12 [Compound 98]
Plant response rating, Wheat [1, 13]: 30 | Plant response rating, Wheat [1, 14]: 30 | Plant response rating, Ryegrass, Italian [2, 15]: 90 | Plant response rating, Ryegrass, Italian [2, 16]: 100 | Ryegrass, Italian plant response rating [2, 17]: 20 | Plant response rating, Ryegrass, Italian [2, 18]: 90 | Plant response rating, Corn [3, 13]: 20 | Plant response rating, Corn [3, 14]: 20 | Plant response rating, Ragweed [4, 15]: 100 | Plant response rating, Ragweed [4, 16]: 100 | Ragweed plant response rating [4, 17]: 60 | Plant response rating, Ragweed [4, 18]: 90 | Plant response rating, Kochia [5, 15]: 30 | Plant response rating, Kochia [5, 16]: 60 | Kochia plant response rating [5, 17]: 20 | Plant response rating, Kochia [5, 18]: 40 | Plant response rating, Foxtail, Giant [6, 15]: 90 | Plant response rating, Foxtail, Giant [6, 16]: 100 | Foxtail, Giant plant response rating [6, 17]: 90 | Plant response rating, Foxtail, Giant [6, 18]: 100 | Plant response rating, Galium [7, 19]: 98 | Plant response rating, Galium [7, 20]: 98 | Galium plant response rating [7, 21]: 95 | Plant response rating, Ryegrass, Italian [8, 19]: 65 | Plant response rating, Ryegrass, Italian [8, 20]: 85 | Ryegrass, Italian plant response rating [8, 21]: 45 | Plant response rating, Soybean [9, 19]: 25 | Plant response rating, Soybean [9, 20]: 25 | Soybean plant response rating [9, 21]: 10 | Plant response rating, Ragweed [10, 19]: 98 | Plant response rating, Ragweed [10, 20]: 100 | Ragweed plant response rating [10, 21]: 98 | Plant response rating, Galium [11, 13]: 100 | Plant response rating, Galium [11, 14]: 100 | Plant response rating, Blackgrass [12]: 30 | Blackgrass plant response rating [12]: 30

COc1nn(C)c(=O)c(-c2c(C)sc3ccc(Cl)cc23)c1O [Compound 100]
Plant response rating, Wheat [1, 13]: 0 | Plant response rating, Wheat [1, 14]: 20 | Plant response rating, Ryegrass, Italian [2, 15]: 90 | Plant response rating, Ryegrass, Italian [2, 16]: 100 | Ryegrass, Italian plant response rating [2, 17]: 90 | Plant response rating, Ryegrass, Italian [2, 18]: 100 | Plant response rating, Corn [3, 13]: 0 | Plant response rating, Corn [3, 14]: 20 | Plant response rating, Ragweed [4, 15]: 90 | Plant response rating, Ragweed [4, 16]: 90 | Ragweed plant response rating [4, 17]: 40 | Plant response rating, Ragweed [4, 18]: 80 | Plant response rating, Kochia [5, 15]: 70 | Plant response rating, Kochia [5, 16]: 100 | Kochia plant response rating [5, 17]: 30 | Plant response rating, Kochia [5, 18]: 70 | Plant response rating, Foxtail, Giant [6, 15]: 80 | Plant response rating, Foxtail, Giant [6, 16]: 80 | Foxtail, Giant plant response rating [6, 17]: 70 | Plant response rating, Foxtail, Giant [6, 18]: 90 | Plant response rating, Galium [7, 19]: 95 | Plant response rating, Galium [7, 20]: 95 | Galium plant response rating [7, 21]: 95 | Plant response rating, Ryegrass, Italian [8, 19]: 90 | Plant response rating, Ryegrass, Italian [8, 20]: 95 | Ryegrass, Italian plant response rating [8, 21]: 90 | Plant response rating, Soybean [9, 19]: 5 | Plant response rating, Soybean [9, 20]: 5 | Soybean plant response rating [9, 21]: 5 | Plant response rating, Ragweed [10, 19]: 95 | Plant response rating, Ragweed [10, 20]: 98 | Ragweed plant response rating [10, 21]: 95 | Plant response rating, Galium [11, 13]: 90 | Plant response rating, Galium [11, 14]: 100 | Plant response rating, Blackgrass [12]: 40 | Blackgrass plant response rating [12]: 70

Cc1nn(C)c(=O)c(-c2c(C)sc3ccc(Cl)cc23)c1O [Compound 104]
Plant response rating, Wheat [1, 13]: 20 | Plant response rating, Wheat [1, 14]: 20 | Plant response rating, Ryegrass, Italian [2, 15]: 100 | Plant response rating, Ryegrass, Italian [2, 16]: 100 | Ryegrass, Italian plant response rating [2, 17]: 100 | Plant response rating, Ryegrass, Italian [2, 18]: 100 | Plant response rating, Corn [3, 13]: 0 | Plant response rating, Corn [3, 14]: 20 | Plant response rating, Ragweed [4, 15]: 100 | Plant response rating, Ragweed [4, 16]: 100 | Ragweed plant response rating [4, 17]: 90 | Plant response rating, Ragweed [4, 18]: 100 | Plant response rating, Kochia [5, 15]: 90 | Plant response rating, Kochia [5, 16]: 100 | Kochia plant response rating [5, 17]: 100 | Plant response rating, Kochia [5, 18]: 100 | Plant response rating, Foxtail, Giant [6, 15]: 80 | Plant response rating, Foxtail, Giant [6, 16]: 100 | Foxtail, Giant plant response rating [6, 17]: 70 | Plant response rating, Foxtail, Giant [6, 18]: 100 | Plant response rating, Galium [7, 22]: 95 | Plant response rating, Galium [7, 19]: 98 | Plant response rating, Galium [7, 20]: 98 | Plant response rating, Galium [7, 23]: 90 | Plant response rating, Galium [7, 24]: 85 | Plant response rating, Galium [7, 25]: 90 | Galium plant response rating [7, 26]: 98 | Plant response rating, Ryegrass, Italian [8, 22]: 90 | Plant response rating, Ryegrass, Italian [8, 19]: 90 | Plant response rating, Ryegrass, Italian [8, 20]: 90 | Plant response rating, Ryegrass, Italian [8, 23]: 55 | Plant response rating, Ryegrass, Italian [8, 24]: 85 | Plant response rating, Ryegrass, Italian [8, 25]: 90 | Ryegrass, Italian plant response rating [8, 26]: 95 | Plant response rating, Soybean [9, 22]: 0 | Plant response rating, Soybean [9, 19]: 10 | Plant response rating, Soybean [9, 20]: 10 | Plant response rating, Soybean [9, 23]: 0 | Plant response rating, Soybean [9, 24]: 0 | Plant response rating, Soybean [9, 25]: 0 | Soybean plant response rating [9, 26]: 0 | Plant response rating, Ragweed [10, 22]: 85 | Plant response rating, Ragweed [10, 19]: 98 | Plant response rating, Ragweed [10, 20]: 100 | Plant response rating, Ragweed [10, 23]: 85 | Plant response rating, Ragweed [10, 24]: 90 | Plant response rating, Ragweed [10, 25]: 95 | Ragweed plant response rating [10, 26]: 100 | Plant response rating, Galium [11, 13]: 100 | Plant response rating, Galium [11, 14]: 100 | Plant response rating, Blackgrass [12]: 90 | Blackgrass plant response rating [12]: 90

CCCC(=O)Oc1c(C)nn(C)c(=O)c1-c1c(C)sc2c(C)cc(C)cc12 [Compound 106]
Plant response rating, Wheat [1, 13]: 0 | Plant response rating, Wheat [1, 14]: 20 | Plant response rating, Ryegrass, Italian [2, 15]: 90 | Plant response rating, Ryegrass, Italian [2, 16]: 100 | Ryegrass, Italian plant response rating [2, 17]: 100 | Plant response rating, Ryegrass, Italian [2, 18]: 100 | Plant response rating, Corn [3, 13]: 0 | Plant response rating, Corn [3, 14]: 20 | Plant response rating, Ragweed [4, 15]: 90 | Plant response rating, Ragweed [4, 16]: 90 | Ragweed plant response rating [4, 17]: 90 | Plant response rating, Ragweed [4, 18]: 100 | Plant response rating, Kochia [5, 15]: 70 | Plant response rating, Kochia [5, 16]: 90 | Kochia plant response rating [5, 17]: 20 | Plant response rating, Kochia [5, 18]: 90 | Plant response rating, Foxtail, Giant [6, 15]: 90 | Plant response rating, Foxtail, Giant [6, 16]: 90 | Foxtail, Giant plant response rating [6, 17]: 100 | Plant response rating, Foxtail, Giant [6, 18]: 100 | Plant response rating, Galium [7, 22]: 95 | Plant response rating, Galium [7, 19]: 95 | Plant response rating, Galium [7, 20]: 100 | Plant response rating, Galium [7, 23]: 90 | Plant response rating, Galium [7, 24]: 90 | Plant response rating, Galium [7, 25]: 95 | Galium plant response rating [7, 26]: 95 | Plant response rating, Ryegrass, Italian [8, 22]: 85 | Plant response rating, Ryegrass, Italian [8, 19]: 90 | Plant response rating, Ryegrass, Italian [8, 20]: 35 | Plant response rating, Ryegrass, Italian [8, 23]: 50 | Plant response rating, Ryegrass, Italian [8, 24]: 70 | Plant response rating, Ryegrass, Italian [8, 25]: 85 | Ryegrass, Italian plant response rating [8, 26]: 90 | Plant response rating, Soybean [9, 22]: 0 | Plant response rating, Soybean [9, 19]: 0 | Plant response rating, Soybean [9, 20]: 10 | Plant response rating, Soybean [9, 23]: 0 | Plant response rating, Soybean [9, 24]: 0 | Plant response rating, Soybean [9, 25]: 0 | Soybean plant response rating [9, 26]: 0 | Plant response rating, Ragweed [10, 22]: 80 | Plant response rating, Ragweed [10, 19]: 75 | Plant response rating, Ragweed [10, 20]: 98 | Plant response rating, Ragweed [10, 23]: 85 | Plant response rating, Ragweed [10, 24]: 90 | Plant response rating, Ragweed [10, 25]: 95 | Ragweed plant response rating [10, 26]: 95 | Plant response rating, Galium [11, 13]: 100 | Plant response rating, Galium [11, 14]: 100 | Plant response rating, Blackgrass [12]: 90 | Blackgrass plant response rating [12]: 90
